Columns and labels:
[1] = target: GDP-bound KRAS wild-type protein (Homo sapiens, UniProt P01116); assay: Binding to KRAS by surface plasmon resonance (SPR), Single Cycle Kinetics; conditions: SPR, Single Cycle Kinetics, GDP-bound KRAS wild-type protein; read-out: KRAS KD
[2] = target: GDP-bound NRAS wild-type protein (Homo sapiens, UniProt P01111); assay: Binding to NRAS by surface plasmon resonance (SPR), Single Cycle Kinetics; conditions: SPR, GDP-bound NRAS wild-type protein vs GDP-bound KRAS wild-type protein
Chain of GDP-bound NRAS wild-type protein (P01111 whole entry): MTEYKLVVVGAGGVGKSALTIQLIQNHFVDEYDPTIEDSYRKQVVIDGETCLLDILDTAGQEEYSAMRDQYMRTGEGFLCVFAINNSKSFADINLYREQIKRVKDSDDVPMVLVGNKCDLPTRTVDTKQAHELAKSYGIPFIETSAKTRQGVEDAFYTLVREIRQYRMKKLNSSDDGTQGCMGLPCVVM

[3] = target: GDP-bound HRAS wild-type protein (Homo sapiens, UniProt P01112); assay: Binding to HRAS by surface plasmon resonance (SPR), Single Cycle Kinetics; conditions: SPR, GDP-bound HRAS wild-type protein vs GDP-bound KRAS wild-type protein
Chain of GDP-bound HRAS wild-type protein (P01112 whole entry): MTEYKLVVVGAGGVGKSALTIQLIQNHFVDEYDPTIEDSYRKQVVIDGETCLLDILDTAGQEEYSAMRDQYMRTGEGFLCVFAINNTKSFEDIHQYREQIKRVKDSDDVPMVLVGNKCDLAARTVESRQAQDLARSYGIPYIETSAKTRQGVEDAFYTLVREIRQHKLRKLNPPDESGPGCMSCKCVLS

Chain of GDP-bound KRAS wild-type protein (P01116 whole entry): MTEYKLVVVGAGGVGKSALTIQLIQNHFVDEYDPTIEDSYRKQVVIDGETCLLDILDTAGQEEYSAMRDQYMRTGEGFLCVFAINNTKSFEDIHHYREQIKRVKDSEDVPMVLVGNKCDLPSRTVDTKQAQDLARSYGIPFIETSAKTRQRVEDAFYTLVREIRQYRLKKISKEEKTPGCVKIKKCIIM

Kd [1] [nM]	Structure (SMILES)	NRAS/KRAS (ratio of KD value for NRAS to KD value for KRAS) [2]	HRAS/KRAS (ratio of KD value for HRAS to KD value for KRAS) [3]
0.042	CCO[C@@H]1C[C@H]2C(=O)NC3(CCC3)C(=O)N(C)[C@@H](C3CCCC3)C(=O)N(C)[C@H](C(=O)N(C)C)CC(=O)N(C)[C@@H](CC(F)F)C(=O)N[C@@H]([C@@H](C)CC)C(=O)N(C)CC(=O)N(C)[C@H]3C/C=C\CCN(C3=O)[C@@H](Cc3ccc(C(F)(F)F)cc3)C(=O)N(C)CC(=O)N[C@@H](CCc3cc(F)c(C(F)(F)F)c(F)c3)C(=O)N2C1 [PP1120, (2S,8S,12R,14S,20S,23S,27S,30S,36S,38Z)-20-cyclopentyl-27-(2,2-difluoroethyl)-8-[2-[3,5-difluoro-4-(trifluoromethyl)phenyl]ethyl]-12-ethoxy-N,N,4,19,22,26,32,35-octamethyl-30-[(1S)-1-methylpropyl]-3,6,9,15,18,21,25,28,31,34,42-undecaoxo-2-[[4-(trifluoromethyl)phenyl]methyl]spiro[1,4,7,10,16,19,22,26,29,32,35-undecazatricyclo[34.5.1.0^10,14]dotetracont-38-ene-17,1′-cyclobutane]-23-carboxamide]	A (a compound having 10 or more and less than 20 is denoted as A)	A (a compound having 10 or more and less than 20 is denoted as A)
0.049	CCO[C@@H]1C[C@H]2C(=O)NC3(CCC3)C(=O)N(C)[C@@H](C3CCCC3)C(=O)N(C)[C@H](C(=O)N(C)C)CC(=O)N(C)[C@@H](CCC(F)F)C(=O)N[C@@H]([C@@H](C)CC)C(=O)N(C)CC(=O)N(C)[C@H]3C/C=C\CCN(C3=O)[C@@H](Cc3ccc(C(F)(F)F)cc3)C(=O)N(C)CC(=O)N[C@@H](CCc3cc(F)c(C(F)(F)F)c(F)c3)C(=O)N2C1 [PP1121, (2S,8S,12R,14S,20S,23S,27S,30S,36S,38Z)-20-cyclopentyl-27-(3,3-difluoropropyl)-8-[2-[3,5-difluoro-4-(trifluoromethyl)phenyl]ethyl]-12-ethoxy-N,N,4,19,22,26,32,35-octamethyl-30-[(1S)-1-methylpropyl]-3,6,9,15,18,21,25,28,31,34,42-undecaoxo-2-[[4-(trifluoromethyl)phenyl]methyl]spiro[1,4,7,10,16,19,22,26,29,32,35-undecazatricyclo[34.5.1.0^10,14]dotetracont-38-ene-17,1′-cyclobutane]-23-carboxamide]	A (a compound having 10 or more and less than 20 is denoted as A)	A (a compound having 10 or more and less than 20 is denoted as A)
0.047	CCO[C@@H]1C[C@H]2C(=O)NC3(CCC3)C(=O)N(C)[C@@H](C3CCCC3)C(=O)N(C)[C@H](C(=O)N(C)C)CC(=O)N(C)[C@@H](CCC(=O)N(C)C)C(=O)N[C@@H]([C@@H](C)CC)C(=O)N(C)CC(=O)N(C)[C@H]3C/C=C\CCN(C3=O)[C@@H](Cc3ccc(C(F)(F)F)cc3)C(=O)N(C)CC(=O)N[C@@H](CCc3cc(F)c(C(F)(F)F)c(F)c3)C(=O)N2C1 [PP1122]	A (a compound having 10 or more and less than 20 is denoted as A)	B (a compound having 3 or more and less than 10 is denoted as B)
